According to patent US10294212B2 (CURADEV PHARMA PRIVATE LTD., priority 2013, dated 2019):
Structures can show the parent of a compound that is named as a salt.

Legend:
[1] = biological target: Human indoleamine 2,3-dioxygenase1 (hIDO1) (Homo sapiens (Human), UniProt P14902); assay: In-vitro IDO1 enzyme assay (conversion of L-tryptophan to KYN); format: biochemical; settings: read-out: IC50 (IDO1) Enz
Method in brief: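 His-tagged hIDO1 (10 nM, E. coli-expressed) incubated with 30 μM L-tryptophan, 20 mM ascorbate, 10 μM methylene blue and 100 μg/mL catalase in 50 mM potassium phosphate pH 6.5, 30 min at 37 °C. TCA stop, then 65 °C hydrolysis; KYN measured by HPLC-UV at 360 nm or LC/MS/MS. IC50 by nonlinear regression versus 1% DMSO control.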

[2] = biological target: IDO1 in HeLa cells (Homo sapiens (Human), UniProt P14902); assay: HeLa cell based IDO1 assay (IFNγ-induced, KYN in supernatant)
Method in brief: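 HeLa cells were induced overnight with IFNγ (50 ng/mL), washed, then exposed to compound (typically 10 μM–1 nM) in HBSS with 80 μM L-tryptophan. Supernatant was TCA-treated at 65 °C for 15 min to convert N-formylkynurenine, and KYN was measured by HPLC-UV at 360 nm. IC50 came from nonlinear regression against a 1% DMSO control.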

[3] = biological target: Human TDO (hTDO)-transfected CHO-K1 cells (Homo sapiens (Human), UniProt P48775); assay: CHO-K1 cell based TDO assay; settings: hTDO cellular assay
Method in brief: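 Stably hTDO-expressing CHO-K1 cells were exposed to compounds (typically 31 μM to 10 nM) in HBSS with 80 μM L-tryptophan for 2 h. TCA-treated supernatant was heated at 65° C for 15 min to convert N-formylkynurenine, then kynurenine was quantified by LC/MS/MS. IC50 came from percent inhibition versus DMSO control.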

Chain of Human TDO (hTDO)-transfected CHO-K1 cells (P48775 whole entry): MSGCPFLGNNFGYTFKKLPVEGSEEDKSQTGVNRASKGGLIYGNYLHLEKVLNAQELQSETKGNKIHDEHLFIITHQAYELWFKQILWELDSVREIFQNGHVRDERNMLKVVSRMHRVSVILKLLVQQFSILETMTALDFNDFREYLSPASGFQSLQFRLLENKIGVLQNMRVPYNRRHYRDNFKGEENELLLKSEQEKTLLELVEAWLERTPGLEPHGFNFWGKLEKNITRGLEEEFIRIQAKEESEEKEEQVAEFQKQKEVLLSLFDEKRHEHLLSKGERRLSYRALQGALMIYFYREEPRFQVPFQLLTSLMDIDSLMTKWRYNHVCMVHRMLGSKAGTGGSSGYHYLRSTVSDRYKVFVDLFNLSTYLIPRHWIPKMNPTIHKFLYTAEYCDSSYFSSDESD
Chain of Human indoleamine 2,3-dioxygenase1 (hIDO1) (P14902 whole entry): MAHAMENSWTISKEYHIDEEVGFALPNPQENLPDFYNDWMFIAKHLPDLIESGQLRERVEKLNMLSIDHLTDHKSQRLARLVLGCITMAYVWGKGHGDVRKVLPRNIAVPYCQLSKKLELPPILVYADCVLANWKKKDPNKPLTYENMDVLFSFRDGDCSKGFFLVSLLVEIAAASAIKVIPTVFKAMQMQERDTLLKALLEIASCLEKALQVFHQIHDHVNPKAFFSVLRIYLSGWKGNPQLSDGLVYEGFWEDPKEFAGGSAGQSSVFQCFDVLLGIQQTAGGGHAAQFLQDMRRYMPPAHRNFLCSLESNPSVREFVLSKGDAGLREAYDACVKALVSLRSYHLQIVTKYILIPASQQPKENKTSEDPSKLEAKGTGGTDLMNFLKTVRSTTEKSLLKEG
Chain of IDO1 in HeLa cells (P14902 whole entry): as above

Row | IC50 [1] | IC50 [2] | IC50 [3] | Compound
1 | < 200 nM | < 200 nM | > 2000 nM | Nc1oc2c(-c3ccc4ccccc4c3)nccc2c1Nc1ccc(F)c(Cl)c1 [Compound 247, N^3-(3-Chloro-4-fluorophenyl)-7-(naphthalen-2-yl)furo[2,3-c]pyridine-2,3-diamine]
2 | < 200 nM | < 200 nM | 500 to 2000 nM | Cc1cc(-c2cccc3c(Nc4cccc(Cl)c4)c(N)sc23)ccn1 [Compound 248, N^3-(3-Chlorophenyl)-7-(2-methylpyridin-4-yl)benzo[b]thiophene-2,3-diamine]
3 | < 200 nM | 200 to 1000 nM | > 2000 nM | Nc1oc2c(-c3ccnc(C(=O)Nc4ccccc4)c3)nccc2c1Nc1ccc(F)c(Cl)c1 [Compound 249, 4-(2-Amino-3-((3-chloro-4-fluorophenyl)amino)furo[2,3-c]pyridin-7-yl)-N-phenylpicolinamide]
4 | < 200 nM | < 200 nM | > 2000 nM | CCCCNC(=O)c1cc(-c2nccc3c(Nc4ccc(F)c(Cl)c4)c(N)oc23)ccn1 [Compound 250, 4-(2-Amino-3-((3-chloro-4-fluorophenyl)amino)furo[2,3-c]pyridin-7-yl)-N-butylpicolinamide]
5 | < 200 nM | < 200 nM | > 2000 nM | CC(C)(C)NC(=O)c1cc(-c2nccc3c(Nc4ccc(F)c(Cl)c4)c(N)oc23)ccn1 [Compound 251, 4-(2-Amino-3-((3-chloro-4-fluorophenyl)amino)furo[2,3-c]pyridin-7-yl)-N-(tert-butyl)picolinamide]
6 | < 200 nM | < 200 nM | > 2000 nM | CC(C)CNC(=O)c1cc(-c2nccc3c(Nc4ccc(F)c(Cl)c4)c(N)oc23)ccn1 [Compound 252, 4-(2-Amino-3-((3-chloro-4-fluorophenyl)amino)furo[2,3-c]pyridin-7-yl)-N-isobutylpicolinamide]
7 | < 200 nM | < 200 nM | > 2000 nM | CCCNC(=O)c1cc(-c2nccc3c(Nc4ccc(F)c(Cl)c4)c(N)oc23)ccn1 [Compound 253, 4-(2-Amino-3-((3-chloro-4-fluorophenyl)amino)furo[2,3-c]pyridin-7-yl)-N-propylpicolinamide]
8 | < 200 nM | < 200 nM | 500 to 2000 nM | Cc1cc(-c2nc(F)cc3c(Nc4cccc(Cl)c4)c(N)oc23)ccn1 [Compound 254, N^3-(3-Ahlorophenyl)-5-fluoro-7-(2-methylpyridin-4-yl)furo[2,3-c]pyridine-2,3-diamine]
9 | < 200 nM | < 200 nM | < 500 nM | Cc1cc(-c2nccc3c(Nc4ccc(F)cc4F)c(N)oc23)ccn1 [Compound 256, N^3-(2,4-Difluorophenyl)-7-(2-methylpyridin-4-yl)furo[2,3-c]pyridine-2,3-diamine]
10 | < 200 nM | < 200 nM | > 2000 nM | Nc1oc2c(-c3ccnc(C(=O)NC4CCCCC4)c3)nccc2c1Nc1ccc(F)c(Cl)c1 [Compound 257, 4-(2-Amino-3-((3-chloro-4-fluorophenyl)amino)furo[2,3-c]pyridin-7-yl)-N-cyclohexylpicolinamide]
11 | < 200 nM | 200 to 1000 nM | > 2000 nM | Nc1oc2c(-c3cc(Cl)cc(Cl)c3)nccc2c1Nc1ccc(F)c(Cl)c1 [Compound 258, N^3-(3-Chloro-4-fluorophenyl)-7-(3,5-dichlorophenyl)furo[2,3-c]pyridine-2,3-diamine]

More lines, now with the values behind:

Row | Compound | IC50 [1] | IC50 [2] | IC50 [3]
12 | CNC(=O)c1cc(-c2nccc3c(Nc4cccc(Cl)c4)c(N)oc23)ccn1 [Compound 225, 4-(2-Amino-3-((3-chlorophenyl)amino)furo[2,3-c]pyridin-7-yl)-N-methylpicolinamide] | < 200 nM | < 200 nM | 500 to 2000 nM
13 | CNC(=O)c1cc(-c2nccc3c(Nc4cccc(C(F)(F)F)c4)c(N)oc23)ccn1 [Compound 226, 4-(2-Amino-3-((3-(trifluoromethyl)phenyl)amino)furo[2,3-c]pyridin-7-yl)-N-methylpicolinamide] | < 200 nM | < 200 nM | > 2000 nM
14 | CNC(=O)c1cc(-c2nccc3c(Nc4ccc(F)c(C(F)(F)F)c4)c(N)oc23)ccn1 [Compound 227, 4-(2-amino-3-((4-fluoro-3-(trifluoromethyl)phenyl)amino)furo[2,3-c]pyridin-7-yl)-N-methylpicolinamide] | < 200 nM | < 200 nM | > 2000 nM
15 | Nc1oc2cnc(F)cc2c1Nc1ccc(F)cc1 [Compound 228, 5-Fluoro-N^3-(4-fluorophenyl)furo[2,3-c]pyridine-2,3-diamine] | < 200 nM | < 200 nM | < 500 nM
16 | COc1cc(-c2nccc3c(Nc4ccc(F)c(Cl)c4)c(N)oc23)ccn1 [Compound 229, N^3-(3-Chloro-4-fluorophenyl)-7-(2-methoxypyridin-4-yl)furo[2,3-c]pyridine-2,3-diamine] | < 200 nM | < 200 nM | 500 to 2000 nM
17 | Nc1sc2ccccc2c1Nc1cccc(Br)c1 [Compound 230, N^3-(3-Bromophenyl)benzo[b]thiophene-2,3-diamine] | < 200 nM | < 200 nM | 500 to 2000 nM
18 | Nc1sc2ccccc2c1Nc1ccc(F)cc1 [Compound 231, N^3-(4-Fluorophenyl)benzo[b]thiophene-2,3-diamine] | 200 to 1000 nM | 200 to 1000 nM | > 2000 nM
19 | CCc1ccccc1Nc1c(N)sc2ccccc12 [Compound 232, N^3-(2-Ethylphenyl)benzo[b]thiophene-2,3-diamine hydrochloride] | > 1000 nM | > 1000 nM | > 2000 nM
20 | Nc1sc2c(-c3ccccc3)cccc2c1Nc1ccc(F)c(Cl)c1 [Compound 233, N^3-(3-Chloro-4-fluorophenyl)-7-phenylbenzo[b]thiophene-2,3-diamine] | < 200 nM | < 200 nM | > 2000 nM
21 | Nc1sc2ccccc2c1Nc1cccc(Cl)c1 [Compound 234, N^3-(3-Chlorophenyl)benzo[b]thiophene-2,3-diamine] | < 200 nM | < 200 nM | < 500 nM
22 | COc1cccc(Nc2c(N)sc3ccccc23)c1 [Compound 235, N^3-(3-Methoxyphenyl)benzo[b]thiophene-2,3-diamine] | 200 to 1000 nM | < 200 nM | < 500 nM
23 | Nc1sc2ccccc2c1Nc1ccc2c(c1)OCO2 [Compound 236, N^3-(benzo[d][1,3]dioxol-5-yl)benzo[b]thiophene-2,3-diamine] | < 200 nM | < 200 nM | > 2000 nM
24 | Cc1cc(Br)ccc1Nc1c(N)sc2ccccc12 [Compound 237, N^3-(4-Bromo-2-methylphenyl)benzo[b]thiophene-2,3-diamine] | > 1000 nM | 200 to 1000 nM | > 2000 nM
25 | Cc1cc(-c2nccc3c(Nc4cccc(Cl)c4)c(N)oc23)ccn1 [Compound 238, N^3-(3-Chlorophenyl)-7-(2-methylpyridin-4-yl)furo[2,3-c]pyridine-2,3-diamine] | < 200 nM | < 200 nM | 500 to 2000 nM
26 | Cc1cc(-c2nccc3c(Nc4ccccc4)c(N)oc23)ccn1 [Compound 239, 7-(2-Methylpyridin-4-yl)-N^3-phenylfuro[2,3-c]pyridine-2,3-diamine] | < 200 nM | < 200 nM | < 500 nM
27 | Cc1cc(-c2cccc3c(Nc4ccc(F)c(Cl)c4)c(N)sc23)ccn1 [Compound 240, N^3-(3-Chloro-4-fluorophenyl)-7-(2-methylpyridin-4-yl)benzo[b]thiophene-2,3-diamine] | < 200 nM | < 200 nM | > 2000 nM
28 | Cc1cc(-c2nc(F)cc3c(Nc4ccc(F)cc4)c(N)oc23)ccn1 [Compound 241, 5-Fluoro-N^3-(4-fluorophenyl)-7-(2-methylpyridin-4-yl)furo[2,3-c]pyridine-2,3-diamine] | < 200 nM | < 200 nM | < 500 nM
29 | Cc1cc(-c2nccc3c(Nc4cccc(F)c4)c(N)oc23)ccn1 [Compound 243, N^3-(3-Fluorophenyl)-7-(2-methylpyridin-4-yl)furo[2,3-c]pyridine-2,3-diamine] | < 200 nM | < 200 nM | < 500 nM
30 | Cc1cc(-c2nc(F)cc3c(Nc4ccc(F)c(Cl)c4)c(N)oc23)ccn1 [Compound 244, N^3-(3-Chloro-4-fluorophenyl)-5-fluoro-7-(2-methylpyridin-4-yl)furo[2,3-c]pyridine-2,3-diamine] | < 200 nM | < 200 nM | 500 to 2000 nM
31 | Nc1oc2c(N3CCOCC3)nccc2c1Nc1ccc(F)c(Cl)c1 [Compound 245, N^3-(3-Chloro-4-fluorophenyl)-7-morpholinofuro[2,3-c]pyridine-2,3-diamine] | < 200 nM | < 200 nM | 500 to 2000 nM
32 | Cc1cc(-c2nc(F)cc3c(Nc4ccc(F)c(F)c4)c(N)oc23)ccn1 [Compound 246, N^3-(3,4-Difluorophenyl)-5-fluoro-7-(2-methylpyridin-4-yl)furo[2,3-c]pyridine-2,3-diamine] | < 200 nM | < 200 nM | 500 to 2000 nM
